The IC50 is the concentration that inhibits the measured activity by half. One may read the Ki as the dissociation constant of the complex between target and ligand, obtained from inhibition or displacement. As a reminder, the inhibition is the relative decrease from the control value, in per cent.

IC50, Ki and inhibition data for three compounds are collected here from PMC5789148, “Embelin Restores Carbapenem Efficacy against NDM-1-Positive Pathogens” (Frontiers in Microbiology, 2018).

Assay type in all cases: biochemical
For one experiment, the target named is IMP-1 (Serratia marcescens, UniProt P52699). The experiment is described as follows: meropenem hydrolysis inhibition assay.
Chain of IMP-1 (P52699 19-246 limits assumed): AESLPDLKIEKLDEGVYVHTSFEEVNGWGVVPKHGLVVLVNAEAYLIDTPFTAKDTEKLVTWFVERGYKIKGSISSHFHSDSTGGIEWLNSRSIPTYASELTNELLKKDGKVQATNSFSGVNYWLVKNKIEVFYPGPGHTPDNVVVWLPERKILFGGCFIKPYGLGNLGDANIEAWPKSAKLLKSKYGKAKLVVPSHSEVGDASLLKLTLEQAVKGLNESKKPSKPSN
The target in another experiment is VIM-1 (Pseudomonas aeruginosa, UniProt A0A0F7KYQ8). The experiment is described as follows: meropenem hydrolysis inhibition assay.
Experiment [1] addresses T1, NDM-1 (New Delhi metallo-β-lactamase-1) (Klebsiella pneumoniae, UniProt C7C422).
T1 construct: gene blaNDM-1
The experiment is described as follows: meropenem hydrolysis inhibition with purified NDM-1, […] nm (IC50 […]).

For experiment [2], the target named is T1, NDM-1 (New Delhi metallo-β-lactamase-1). The experiment is described as follows: single-concentration ([…]) meropenem hydrolysis screen with purified NDM-1. Particulars: read-out: % inhibition at 20 μM.

T1 sequence (C7C422 29-270 limits assumed): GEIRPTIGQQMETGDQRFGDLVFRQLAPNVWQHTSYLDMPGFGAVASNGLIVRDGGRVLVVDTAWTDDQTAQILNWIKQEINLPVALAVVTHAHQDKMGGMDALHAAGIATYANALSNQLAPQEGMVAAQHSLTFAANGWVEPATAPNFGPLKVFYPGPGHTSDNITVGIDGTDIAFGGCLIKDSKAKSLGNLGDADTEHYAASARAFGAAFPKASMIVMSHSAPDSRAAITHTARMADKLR

Turning to `CCCCCCCCCCCC1=C(O)C(=O)C=C(O)C1=O` [embelin], the IC50 on IMP-1 was around 100 µM; against VIM-1, around 200 µM. The same compound returned a Ki in experiment [1] of 190 ± 20 nM.

For `COc1cc(/C=C/C(=O)CC(=O)/C=C/c2ccc(O)c(OC)c2)ccc1O` [curcumine], the inhibition at 20 µM in experiment [2] is above 20%.

For the compound `Oc1ccc(/C=C/c2cc(O)cc(O)c2)cc1` [resveratrol], the inhibition at 20 µM in experiment [2] is above 20%.
